Measured values: patent US20100275328A1, “METHOD OF SELECTIVELY PRODUCING MALE OR FEMALE STERILE PLANTS” (Syngenta Limited, priority 2003, published 2010)

Assays:
[1] = tested on: Nicotiana tabacum var. Samsun; assay: Conditional female sterility of transgenic tobacco expressing mutant D-amino acid oxidase in female floral tissue; type: in vivo; conditions: for seed production after treatment / pollen production after treatment: transgenic tobacco; for seed production after treatment: female floral promoter-DAMOX, foliar spray, root drench or bud application; for pollen production after treatment: same treatment conditions
Experimental: Tobacco leaf discs are transformed with the recombinant binary vectors using methods similar to those described in Horsch et al (1985) Science, 227, 1229-1231. Many variations of the method may be used. The binary vector can be transformed into, for example, Agrobacterium tumefaciens strain LBA 4404 using the freeze thaw method of transformation. Tobacco transformation and whole plant regeneration is performed using Nicotiana tabacum var. Samsun according to protocols described by Draper et al (Plant Genetic Transformation, Blackwell Sci. Pub. 1989). Transformation events are selected on MS-media containing kanamycin or other suitable antibiotic. The presence of integrated transgenes is confirmed by PCR. Plants are regenerated and allowed to reach maturity and selfed on to produce seed. Northern and/or Western analysis is used to confirm tissue-specific expression of the D-amino acid oxidase genes. The selected plants are self-fertile but have the condition of conditional female sterility. Seeds of the T1 generation are planted out. Once plantlets have grown to a sufficient size they are tested by PCR for the presence of transgene. PCR positive plants are transferred to the greenhouse. These plants are fully fertile in the absence of exogenously applied proherbicide. A subset of these (putatively) conditionally sterile plants are treated with D-phosphinothricin or D-aspartate or D-glutamate in various amounts and at varying growth stages. Such treatments are carried out on the T1 plants confirmed as PCR positive for the D-amino acid oxidase gene, or, equally, such treatments are carried out directly on plants of the To generation (which are vegetatively cloned so that untreated clones of each event may be set aside for seed production). […] For example these amino acids are pure D enantiomers or, alternatively, are DL racemates. For example, they are applied as a foliar spray, prior to or during the early stages of flower formation, at rates usually between 0.25 and 20 kg/ha. Amino acids which may crystallise out of solution on the leaves following foliar application may be redissolved and remobilised for leaf uptake by further applications of water as a spray mist. Amino acids are, for example, also applied as a root drench and optionally, further applied as ˜50 ul of a 10-200 mM solution flooded directly into the buds of emerging florets. Pollen from the treated plants is collected and viability is tested. […] Controls include both transgenic and non-transgenic plants and are grown under identical conditions and under an identical regime of physical treatments except that treatment solutions are either water or an equivalent concentration of pure L-amino acid.
In one variant of the method, the amino acid applied is racemic DL phosphinothricin. In this case, the DNA construct used for transformation comprises, in addition to the DNA sequence encoding a D-amino acid oxidase under operable expression control of a tissue specific female floral promoter region such as ‘stig 1’, also a DNA sequence (EMBL: A02774) a […] under operable control of a promoter region such as the region 5′ of the translational start of the plastocyanin gene of the Pisum sativum plastocyanin gene (EMBL accession number X16082). For example, the construct is the same as depicted in FIG. 1.
The plastocyanin promoter region provides for preferential expression in the green tissues of the plant. […] Furthermore, in the absence of the heterologous D-amino acid oxidase being co-expressed in the floral tissues, the plastocyanin/PAT gene combination provides essentially complete reproductive tolerance with no significant loss of yield despite the PAT expression level being low or non-existent in many of the critical floral tissues when expressed under control of this promoter region. […]

[2] = tested on: D-amino acid oxidase; assay: Control experiments: oxidation of pure L and pure D form of phosphinothricin by D-amino acid oxidase; type: biochemical, Rhodotorula gracilis; conditions: oxygen electrode
Experimental: Approximately 7 g wet weight of cells is washed in water. The cells are resuspended in an equal volume of 50 mM/Mops/KOH buffer at pH 7.0 containing 2 mM EDTA, 2 mM DTT and 0.01 mM FAD. Cells are evenly suspended using a glass homogeniser and then disrupted using a one shot head in the Constant Systems (BudBrooke Rd, Warwick U.K.) Basic Z cell disrupter at 13500 psi. The crude extract is kept cold (−4° C.) centrifuged at 30,000 gav for 1 h and the pellet discarded. Some of the extract protein is run out on an SDS PAGE gel stained with Coomassie Blue and, through side by side comparison with similarly prepared extracts of cells containing only ‘empty’ pET vector it is estimated that 2-50% of the total soluble protein in the extract is D-amino acid oxidase. Some of the extract protein is exchanged into 50 mM Mops/KOH buffer at pH 7.0 containing 0.01 mM FAD. This is diluted with the same buffer in a standard oxygen electrode cell (calibrated at 25° C. between zero and a saturated concentration of oxygen). Optionally, the D-amino acid oxidase is further purified using ion-exchange, phenyl sepharose, fractional ammonium sulphate precipitation and gel filtration. […] Final amounts of protein in the cell vary up to 5 mg depending on the level of activity being measured. Rates of oxygen consumption (after substraction of any drift in the bases line) are measured.

[3] = tested on: Tobacco plants; assay: Conditional male sterility of transgenic tobacco expressing mutant D-amino acid oxidase in male floral tissue; type: in vivo; conditions: rates between 250 g/ha and 5 kg/ha; TAP1 or TA29-DAMOX plus plastocyanin-PAT tobacco
Experimental: Tobacco plant material is transformed, via Agrobacterium, with vector and transgenic plants are regenerated in a similar manner to that described in the previous example. The plants produced are self-fertile but are conditionally male sterile. Seeds of the T1 generation are planted out into soil. Once plantlets have grown to a sufficient size they are tested by PCR for the presence of transgene. PCR positive plants are transferred to the greenhouse. These plants are fully fertile in the absence of exogenously applied proherbicide. A subset of these putatively conditionally sterile T1 plants, or, alternatively plantlets of T0 ‘events’ (direct regenerants from transformation) are treated with D-phosphinothricin or D-aspartate or D-glutamate in various amounts and at varying growth stages. Where To plants are treated they are vegetatively cloned so that untreated siblings of the events are set aside for seed production. […] For example these amino acids are pure D enantiomers or, alternatively, are DL racemates. For example, they are applied as a foliar spray, prior to or during the early stages of flower formation, at rates usually between 0.25 and 20 kg/ha. Amino acids which may crystallise out of solution on the leaves following foliar application may be redissolved and remobilised for leaf uptake by further applications of water as a spray mist. […]

[4] = tested on: wheat; assay: Reproductive tolerance of wheat containing PAT gene under barley plastocyanin promoter; type: in vivo; conditions: wheat with PAT under barley plastocyanin promoter; rates of at least 2 kg/ha
Text: The current invention provides a method of overcoming the problem of enabling the use of a cheap commercial herbicide, DL phosphinothricin, as both weed control and hybridising agent in the production of hybrid cereals and which method, furthermore, provides resultant hybrid cereals or rice in which DL phosphinothricin (or L-phosphinothricin) can be safely used for weed control without substantial loss of yield. As a yet further benefit, selfed seed from the F1 generation which may later arise as volunteers in subsequent crops will be easier to manage since they, themselves, will generally be sterile if sprayed with controlling amounts of DL phosphinothricin. The same holds for the progeny of pollen outcrossing from the F1 plants to weeds (e.g red rice) or other cereals. The current invention provides genes and enzymes that convert a non-phytotoxic component, D-phosphinothricin, of a commercial herbicide formulation DL phosphinothricin, into the active L form. The PAT gene which converts L-phosphinothricin to N-acetyl L-phosphinothricin is known already and is used commercially to provide tolerance to DL phosphinothricin in crops. […]

[5] = rates between 250 g/ha and 5 kg/ha, stig1-DAMOX plus plastocyanin-PAT tobacco

Row | SMILES | seed production after treatment [1] | pollen production after treatment [1] | oxidation of pure enantiomer of phosphinothricin [2] | other results
1 | N[C@H](CC(=O)O)C(=O)O [D-aspartate] | relatively little or no seed | near normal levels of viable pollen |  | 
2 | N[C@H](CCC(=O)O)C(=O)O [D-glutamate] | relatively little or no seed | near normal levels of viable pollen |  | 
3 | CP(=O)(O)CC[C@@H](N)C(=O)O [D-phosphinothricin] | relatively little or no seed | near normal levels of viable pollen | up to twice the rate that the DL racemate is | 
4 | CP(=O)(O)CCC(N)C(=O)O (stereo not drawn) [DL phosphinothricin] |  |  |  | reproductive tolerance to the herbicide ([1]; plastocyanin promoter/PAT gene, rates in excess of 2 kg/ha): substantially complete reproductive tolerance; female fertility of treated plants [1, 5]: rendered conditionally female sterile; visible damage of treated plants [1, 5]: not visibly damaged; male fertility of treated plants [3]: rendered conditionally male sterile; visible damage of treated plants [3]: not visibly damaged; reproductive tolerance to application [4]: substantially reproductively tolerant
5 | CP(=O)(O)CC[C@H](N)C(=O)O [pure L-form, L-phosphinothricin] |  |  | not oxidised at detectable levels | 
